22 compounds from patent US7166617B2, “Cyclic amide derivatives” (Mitsubishi Pharma Corporation, priority 2000, dated 2007) can be followed below.

The structures appear in SMILES notation. Where a name gives a salt, the structure may show the parent alone.

For the first experiment, the target named is T1, sigma 2 receptor (Rattus norvegicus, UniProt Q5U3Y7).
T1 construct: A crude P2 membrane fraction was prepared from livers of male rats (Sprague-Dawley rats); from tissue; host or cells: rat liver (male Sprague-Dawley), crude P2 membrane fraction
T1 sequence (Q5U3Y7 1-176): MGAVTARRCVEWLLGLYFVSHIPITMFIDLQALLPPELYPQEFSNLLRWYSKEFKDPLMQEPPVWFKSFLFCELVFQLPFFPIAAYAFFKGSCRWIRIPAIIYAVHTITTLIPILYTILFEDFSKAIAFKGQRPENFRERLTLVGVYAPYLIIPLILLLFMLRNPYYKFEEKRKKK
The experiment is described as follows: Sigma 2-selective receptor binding inhibition test ([3H]-DTG, rat liver P2 membrane fraction). Conditions: [3H]-DTG 1 nM, 500 nM pentazocine, P2 fraction of livers of male Sprague-Dawley rats, 25° C., 2 hours. As for the experimental part: Sigma Binding Site-Binding Inhibition Test
A crude P2 membrane fraction was prepared from livers of male rats (Sprague-Dawley rats) according to a method described in the literature (X. He, et al., J. Med. Chem., 36, pp. 566–571, 1993). In the presence of 500 nM pentazocine and a control compound at various concentrations (haloperidol, 10^−10 to 10^−6 M) or a test ligand at various concentrations (10^−10 to 10^−5 M) together with a radioactive ligand, the P2 fraction (0.4 ml) was incubated in 50 mM Tris-HCl (pH 7.4, final volume: 0.5 ml) at 25° C. for 2 hours. The reaction mixture was rapidly filtered on a Brandel cell harvester using Whatman GF/B filter paper, which was immersed beforehand in 0.5% polyethyleneimine for 1 hour, to stop the reaction. The filter paper was washed 4 times with the ice cooled incubation buffer. The non-specific results were evaluated by using 1 μM haloperidol, and the scintillation analysis and the curve analysis were performed as described above.
The Ki is the equilibrium dissociation constant of an inhibitor or competing ligand from its target. Higher therefore signals weaker binding. `O=C(CN1CCC(CN2CCc3ccccc3C2=O)CC1)c1ccc(F)cc1` [Example 137, 2-[[1-[2-(4-Fluorophenyl)-2-oxoethyl]piperidin-4-yl]methyl]-3,4-dihydroisoquinolin-1(2H)-one hydrochloride] came in with a Ki of 7.8 nM.

The compound `O=C(CN1CCC(CN2Cc3cc(F)ccc3C2=O)CC1)c1ccc(F)cc1` [Example 154, 5-Fluoro-2-[[1-[2-(4-fluorophenyl)-2-oxoethyl]piperidin-4-yl]methyl]isoindolin-1-one hydrochloride] had an inhibition constant Ki of 16 nM.

`COc1ccc2c(c1)CN(CC1CCN(CCc3ccc(F)cc3)CC1)C2=O` [Example 159, 5-Methoxy-2-[1-[2-(4-fluorophenyl)ethyl]piperidin-4-ylmethyl]isoindolin-1-one fumarate] registered a Ki of 25 nM.

`O=C1c2ccc(Br)cc2CN1CC1CCN(CCc2ccc(F)cc2)CC1` [Example 160, 5-Bromo-2-[1-[2-(4-fluorophenyl)ethyl]piperidin-4-ylmethyl]isoindolin-1-one fumarate] yielded a Ki of 10 nM. This Ki is about 2.5-fold lower than that of the compound before.

The experiment is the same for the next values; noted with them: test compound 10 nM; [3H]-DTG 1 nM, 500 nM pentazocine, rat liver P2 fraction.
On to `CCCCn1cccc1C(=O)CN1CCC(CN2Cc3ccccc3C2=O)CC1.Cl` [Example 94, 2-[[1-[2-[2-(1-Butyl)pyrrolyl]-2-oxoethyl]piperidin-4-yl]methyl]isoindolin-1-one hydrochloride], for which the “Inhibitory rate against sigma 2 (%, 10 nM)” value (shortened to “Inhibitory rate … (%, 10 nM)”) amounted to 83%.

`Cl.O=C(CN1CCC(CN2Cc3ccccc3C2=O)CC1)c1cccn1-c1ccccc1` [Example 95, 2-[[1-[2-[2-(1-Phenyl)pyrrolyl]-2-oxoethyl]piperidin-4-yl]methyl]-isoindolin-1-one hydrochloride]: the “Inhibitory rate … (%, 10 nM)” value came to 69%.

On to `COc1ccccc1SCCN1CCC(CN2Cc3ccccc3C2=O)CC1.O=C(O)/C=C/C(=O)O` [Example 110], for which the “Inhibitory rate … (%, 10 nM)” value worked out at 68%.

The same experiment, now with this note: test compound 10 nM; [3H]-DTG 1 nM, 500 nM pentazocine, rat liver P2 fraction; read-out: Inhibitory rate against sigma 2 (%, 10 nM).
With `O=C1c2ccccc2CN1CC1CCN(CCc2ccccc2C(F)(F)F)CC1` [Example 96, 2-[[1-[2-(2-Trifluoromethylphenyl)ethyl]piperidin-4-yl]methyl]-isoindolin-1-one fumarate], the inhibition at 0.01 µM was 66%.

Regarding `O=C1c2ccccc2CN1CC1CCN(CCc2cccc3ccccc23)CC1` [Example 97, 2-[[1-[2-(1-Naphthyl)ethyl]piperidin-4-yl]methyl]isoindolin-1-one fumarate], the inhibition at 0.01 µM stood at 59%.

Take `O=C1c2ccccc2CN1CC1CCN(CCSc2ccccc2)CC1` [Example 109, 2-[[1-[2-(Phenylthio)ethyl]piperidin-4-yl]methyl]isoindolin-1-one fumarate]: the inhibition at 0.01 µM was found to be 68%.

For `COc1cccc(SCCN2CCC(CN3Cc4ccccc4C3=O)CC2)c1` [Example 111, 2-[[1-[2-(3-Methoxyphenylthio)ethyl]piperidin-4-yl]methyl]isoindolin-1-one fumarate], the inhibition at 0.01 µM was determined as 51%.

As for `O=C1c2ccccc2CN1CC1CCN(CCSc2ccccc2F)CC1` [Example 112, 2-[[1-[2-(2-Fluorophenylthio)ethyl]piperidin-4-yl]methyl]isoindolin-1-one fumarate], the inhibition at 0.01 µM is 60%.

On to `O=C1c2ccccc2CN1CC1CCN(CCSc2cccc(F)c2)CC1` [Example 113, 2-[[1-[2-(3-Fluorophenylthio)ethyl]piperidin-4-yl]methyl]isoindolin-1-one fumarate], for which the inhibition at 0.01 µM is 64%.

As for `O=C1c2ccccc2CN1CC1CCN(CCOc2ccccc2)CC1` [Example 114, 2-[[1-(2-Phenoxyethyl)piperidin-4-yl]methyl]isoindolin-1-one fumarate], the inhibition at 0.01 µM worked out at 51%.

`O=C1c2ccccc2CN1CC1CCN(CCOc2ccccc2F)CC1` [Example 117, 2-[[1-[2-(2-Fluorophenoxy)ethyl]piperidin-4-yl]methyl]isoindolin-1-one fumarate]: the inhibition at 0.01 µM amounted to 52%.

In the case of `O=C1c2ccccc2CN1CC1CCN(CCOc2cccc(F)c2)CC1` [Example 118, 2-[[1-[2-(3-Fluorophenoxy)ethyl]piperidin-4-yl]methyl]isoindolin-1-one fumarate], the inhibition at 0.01 µM turned out to be 50%.

As to `O=C(CN1CCC(CN2Cc3ccoc3C2=O)CC1)c1ccc(F)cc1` [Example 158, 5-[[1-[2-(4-Fluorophenyl)-2-oxoethyl]piperidin-4-yl]methyl]-4,5-dihydro-6H-furo[2,3-c]pyrrol-6-one fumarate], the inhibition at 0.01 µM came out at 57%.

For the compound `COc1ccccc1CCN1CCC(CN2Cc3cc(Br)ccc3C2=O)CC1` [Example 167, 2-[1-[2-(2-Methoxyphenyl)ethyl]piperidin-4-ylmethyl]-5-bromoisoindolin-1-one hydrochloride], the inhibition at 0.01 µM is 62%.

Turning to `COc1ccccc1CCN1CCC(CN2Cc3cc(C#N)ccc3C2=O)CC1` [Example 170, 5-Cyano-2-[1-[2-(2-methoxyphenyl)ethyl]piperidin-4-ylmethyl]isoindolin-1-one fumarate], the inhibition at 0.01 µM is 52%.

`O=C1c2ccc(Br)cc2CN1CC1CCN(CCOc2ccc(F)cc2)CC1` [Example 177, 2-[1-[2-(4-Fluorophenyloxy)ethyl]piperidin-4-ylmethyl]-5-bromoisoindolin-1-one hydrochloride]: the inhibition at 0.01 µM was determined as 55%.

For the compound `O=C1c2ccc(Cl)cc2CN1CC1CCN(CCOc2ccc(F)cc2)CC1` [Example 178, 5-Chloro-2-[1-[2-(4-fluorophenoxy)ethyl]piperidin-4-ylmethyl]isoindolin-1-one fumarate], the inhibition at 0.01 µM was determined as 50%.

On to `O=C1c2cccc(F)c2CN1CC1CCN(CCOc2ccc(F)cc2)CC1` [Example 181, 4-Fluoro-2-[1-[2-(4-fluorophenoxy)ethyl]piperidin-4-ylmethyl]isoindolin-1-one fumarate], for which the inhibition at 0.01 µM turned out to be 70%.
